Data on seven compounds can be found in US7674819B2 (Warner-Lambert Company LLC, priority 2005, dated 2010).

For one experiment, the target named is T1, hAR (Homo sapiens, UniProt P10275).
T1 sequence (P10275 1-920): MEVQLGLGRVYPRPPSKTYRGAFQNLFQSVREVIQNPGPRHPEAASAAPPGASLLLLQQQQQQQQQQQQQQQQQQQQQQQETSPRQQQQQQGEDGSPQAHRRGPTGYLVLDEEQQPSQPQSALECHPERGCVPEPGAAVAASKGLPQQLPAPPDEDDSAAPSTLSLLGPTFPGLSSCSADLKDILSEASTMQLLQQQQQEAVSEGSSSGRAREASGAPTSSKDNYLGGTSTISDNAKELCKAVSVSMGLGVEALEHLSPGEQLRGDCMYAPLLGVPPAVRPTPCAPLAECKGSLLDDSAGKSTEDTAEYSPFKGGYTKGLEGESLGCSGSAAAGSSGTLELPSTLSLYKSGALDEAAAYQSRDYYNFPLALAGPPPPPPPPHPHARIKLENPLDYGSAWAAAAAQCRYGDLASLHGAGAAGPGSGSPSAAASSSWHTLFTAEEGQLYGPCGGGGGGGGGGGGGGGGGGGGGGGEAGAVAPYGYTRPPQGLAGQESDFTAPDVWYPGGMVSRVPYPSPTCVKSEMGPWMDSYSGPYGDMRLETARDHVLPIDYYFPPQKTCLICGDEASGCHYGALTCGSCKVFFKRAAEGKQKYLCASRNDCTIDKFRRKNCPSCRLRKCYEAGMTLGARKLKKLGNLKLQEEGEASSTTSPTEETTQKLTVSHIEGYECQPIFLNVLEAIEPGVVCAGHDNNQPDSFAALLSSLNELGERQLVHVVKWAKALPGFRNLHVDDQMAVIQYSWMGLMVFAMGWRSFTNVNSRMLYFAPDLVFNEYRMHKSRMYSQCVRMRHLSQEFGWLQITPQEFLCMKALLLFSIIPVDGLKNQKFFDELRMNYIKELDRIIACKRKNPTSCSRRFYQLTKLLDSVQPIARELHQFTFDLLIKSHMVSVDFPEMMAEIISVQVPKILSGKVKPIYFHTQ
The experiment is described as follows: Competitive binding of 3H-DHT to baculovirus/Sf9 generated hAR extracts. The following applies: one hour at 4° C., mean of multiple tests. An outline of the steps: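 Baculovirus/Sf9-expressed hAR extract incubated with test compound, hydroxylapatite and 1 nM 3H-DHT tracer for 1 h at 4° C, then washed free of unbound tracer. Affinity given as concentration inhibiting half of maximal 3H-DHT binding.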

The subject of another experiment is male Syrian hamsters. The experiment is described as follows: Animal Model for Inhibition of Sebum Production (hamster ear, HPLC of sebum lipids). The format is in vivo, Syrian hamster. The following applies: twice daily, five days a week, 4 weeks; for % CE reduction: cholesterol ester vs vehicle control; for % WE reduction: wax ester vs vehicle control. As to the method:
Luderschmidt et al describes an animal model for testing whether compounds are capable of modulating sebum secretion. Arch. Derm. Res. 258, 185-191 (1977). This model uses male Syrian hamsters, whose ears contain sebaceous glands. Based on binding data and cellular assay data, selected compounds were chosen for screening in this model. Those compounds included the products of Examples 1, 20, 81, 82, and 109.
Testing for sebum inhibition was carried out in the following manner. Male Syrian hamsters aged 9 to 10 weeks were introduced into the laboratory environment and acclimated for 2 weeks prior to use in the study. Each group consisted of 5 animals and run in parallel with vehicle and positive controls. Prior to administration, a sufficient quantity each compound was dissolved in 1 mL of a solvent consisting of ethanol, transcutol, and propylene glycol (60/20/20% v/v/v) to achieve the final concentration specified in Table VIII below.
Animals were dosed topically twice daily, five days a week, for 4 weeks. Each dose consisted of 25 micro liters of vehicle control or drug. The dose was applied to the ventral surfaces of both the right and left ears. All animals were sacrificed approximately 18-24 hours after the final dose. The right ears were collected from each animal and used for sebum analysis.
The ears were prepped for HPLC analysis in the following manner. One 8 mm distal biopsy punch was taken, just above the anatomical “V” mark in the ear to normalize the sample area. The punch was pulled apart. The ventral biopsy surface (the area where the topical dose was directly applied to the sebaceous glands) was retained for testing and the dorsal surface of the biopsy punch was discarded.
Tissue samples were blown with N2 gas and stored at −80° C. under nitrogen until HPLC analysis. In addition to ear samples, an aliquot of each drug and vehicle (at least 250 ul) was also stored at −80° C. for inclusion in the HPLC analysis.
HPLC analysis was carried out on an extract of the tissue sample. Tissue samples were contacted with 3 ml of solvent (a 4:1 admixture of 2,2,4-trimethylpentane and isopropyl alcohol). The mixture was shaken for 15 minutes and stored overnight at room temperature, protected from light. The next morning 1 milliliter of water was added to the sample and shaken for 15 minutes. The sample was then centrifuged at approximately 1500 rpm for 15 minutes. Two ml of the organic phase (top layer) was transferred to a glass vial, dried at 37° C., under nitrogen, for approximately 1 hour, and then lyophilized for approximately 48 hours. The samples were then removed from the lyophilizer and each vial was reconstituted with 600 μl of solvent A (trimethylpentane/tetrahydrofuran (99:1). The samples were then recapped and vortexed for 5 minutes.
200 μl of each sample was then transferred to a pre-labeled 200 μl HPLC vial with 200 μL glass inserts. The HPLC vials were placed in the autosampler tray for the Agilent 1100 series HPLC unit. The Agilent 1100 HPLC system consisted of a thermostated autosampler, a quaternary pump, a column heater, and an A/D interface module. All components were controlled by Agilent ChemStation software. A Waters Spherisorb S3W 4.6×100 mm analytical column was maintained at 30° C. by the Agilent column heater unit.
The HPLC autosampler was programmed to maintain the sample temperature at 20 C throughout the run.
10 uL of each sample was injected in triplicate into the column. Two solvents were used for the solvent gradient. Solvent A was an admixture of trimethylpentane and tetrahydrofuran (99:1). Solvent B was ethylacetate. The gradient utilized is described in the table below: […]
The Sedex 75 Evaporative Light Scattering Detector (ELSD) was operated at 45° C. with a gain of 5, and N2 pressure maintained at 3.1 bar. Analog signal obtained by the instrument was sent to the Agilent A/D interface module where it was converted to a digital output. […]

[1] abbreviates: IC50, concentration at which one half of maximum binding of 1 nM 3H-DHT to hAR is inhibited.
Where [2] appears, read: concentration at which one half of maximum binding of 1 nM 3H-DHT to hAR is inhibited, read-out: IC50.

Structures are written as SMILES. Where two headings read alike, the source gives them in different places.

As to `CC[C@H](C)N1CC(C)(C)[C@@H](Oc2ccc(C#N)c(C(F)(F)F)c2)C1=O` [Example 1, (3R,S)-(+)-4-(1-sec-Butyl-4,4-dimethyl-2-oxo-pyrrolidin-3-yloxy)-2-trifluoromethyl-benzonitrile], at hAR (setting [1]), the half-inhibitory concentration (IC50) came out at 136 nM. In the experiment on male Syrian hamsters (topical 1%), the “% CE reduction” value worked out at 70%, the “Sum of WE & CE” value came out at 125 and the “% WE reduction” value is on record as 55%.
Taken in the same sequence, the figures for `CCCN1CC(C)(C)[C@@H](Oc2ccc(C#N)c(C(F)(F)F)c2)C1=O` [Example 4A, (+)-4-(1-Propyl-4,4-dimethyl-2-oxo-pyrrolidin-3-yloxy)-2-trifluoromethyl-benzonitrile (E2)] were 230 nM, 76%, 161 and 85%.
In the case of `CC1(C)CN(S(C)(=O)=O)C(=O)C1Oc1ccc(C#N)c(C(F)(F)F)c1` (stereo not shown) [Example 81, 4-(1-methanesulfonyl-4,4-dimethyl-2-oxo-pyrrolidin-3-yloxy)-2-trifluoromethyl-benzonitrile], the IC50 on hAR (setting [2]) worked out at 139 nM. In the experiment on male Syrian hamsters (topical 1%), the “% CE reduction” value is reported as 12%, the “Sum of WE & CE” value was 20 and the “% WE reduction” value came out at 8%.
Turning to `CC(c1ccccc1)N1CC(C)(C)C(Oc2ccc(C#N)cc2Cl)C1=O` (stereo not shown) [Example 109], the IC50 on hAR (setting [2]) turned out to be 203 nM. For the same compound, in the experiment with male Syrian hamsters (topical 1%), the “% CE reduction” value is listed as 64%, the “Sum of WE & CE” value worked out at 116 and the “% WE reduction” value came out at 52%.
As for `CCCN1CC(C)(C)C(Oc2ccc(C#N)c(C(F)(F)F)c2)C1=O` (stereo not shown) [Example 4, 4-(4,4-dimethyl-2-oxo-1-propyl-pyrrolidin-3-yloxy)-2-trifluoromethyl-benzonitrile], on hAR (setting [1]), the IC50 amounted to 188 nM. For the same compound, in the experiment with male Syrian hamsters (topical 3%), the “% CE reduction” value was determined as 76%, the “Sum of WE & CE” value was determined as 166 and the “% WE reduction” value was determined as 90%.
As for `CCCS(=O)(=O)N1CC(C)(C)C(Oc2ccc(C#N)c(C(F)(F)F)c2)C1=O` (single isomer, unassigned; (+)) [Example 82, (+)-4-[4,4-Dimethyl-2-oxo-1-(propane-1-sulfonyl)-pyrrolidin-3-yloxy]-2-trifluoromethyl-benzonitrile], on hAR (setting [1]), the IC50 amounted to 47 nM. For the same compound, in the experiment with male Syrian hamsters (topical 1%), the “% CE reduction” value came out at 72%, the “Sum of WE & CE” value amounted to 129 and the “% WE reduction” value was 57%.
For the compound `CCCCN1CC(C)(C)C(Oc2ccc(C#N)c(C(F)(F)F)c2)C1=O` (single isomer, unassigned; (+)) [Example 20, (+)-4-(1-Butyl-4,4-dimethyl-2-oxo-pyrrolidin-3-yloxy)-2-trifluoromethyl-benzonitrile], the IC50 at hAR (setting [1]) came out at 97 nM. Also, in the experiment on male Syrian hamsters (topical 2%), the “% CE reduction” value was determined as 83%, the “Sum of WE & CE” value turned out to be 149 and the “% WE reduction” value is reported as 66%.

Broadly, the IC50 is the concentration that inhibits the measured activity by half.
